Results taken from patent publication US20150105252A1, “SUBSTITUTED PYRAZOLES AS HERBICIDES” (E I DU PONT DE NEMOURS AND COMPANY, priority 2013, published 2015).

Legend:
barnyardgrass [1] = assay: Test A preemergence; assay type: in vivo, Echinochloa crus-galli; conditions: preemergence
Method in brief: (§1)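 Visual injury rating, 0–100 (0 no effect, 100 complete control), vs untreated controls ~10 days after treatment in greenhouse. Pre: directed soil spray on seeded loam/sand. Post: 2–10 cm plants, 1–2 leaf stage. Formulation: non-phytotoxic solvent mix + surfactant.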

crabgrass, large [2] = assay: Test A preemergence; assay type: in vivo, Digitaria sanguinalis; conditions: preemergence; for Crabgrass, Large plant response rating (0 to 100 scale): 125 g ai/ha, visual injury approx. 10 days after treatment; for Crabgrass, Large plant response rating: 500 g ai/ha, visual injury after approx. 10 days, 0 to 100 scale (0 no effect, 100 complete control)
Method in brief: as §1

foxtail, giant [3] = assay: Test A preemergence; assay type: in vivo, Setaria faberii; conditions: preemergence; for Foxtail, Giant plant response rating (0 to 100 scale): 125 g ai/ha, visual injury approx. 10 days after treatment; for Foxtail, Giant plant response rating: 500 g ai/ha, visual injury after approx. 10 days, 0 to 100 scale (0 no effect, 100 complete control)
Method in brief: as §1

morningglory [4] = assay: Test A preemergence; assay type: in vivo, Ipomoea spp.; conditions: preemergence; for Morningglory plant response rating (0 to 100 scale): 125 g ai/ha, visual injury approx. 10 days after treatment; for Morningglory plant response rating: 500 g ai/ha, visual injury after approx. 10 days, 0 to 100 scale (0 no effect, 100 complete control)
Method in brief: as §1

pigweed [5] = assay: Test A preemergence; assay type: in vivo, Amaranthus retroflexus; conditions: preemergence; for Pigweed plant response rating (0 to 100 scale): 125 g ai/ha, visual injury approx. 10 days after treatment; for Pigweed plant response rating: 500 g ai/ha, visual injury after approx. 10 days, 0 to 100 scale (0 no effect, 100 complete control)
Method in brief: as §1

velvetleaf [6] = assay: Test A preemergence; assay type: in vivo, Abutilon theophrasti; conditions: preemergence; for Velvetleaf plant response rating (0 to 100 scale): 125 g ai/ha, visual injury approx. 10 days after treatment; for Velvetleaf plant response rating: 500 g ai/ha, visual injury after approx. 10 days, 0 to 100 scale (0 no effect, 100 complete control)
Method in brief: as §1

wheat [7] = assay: Test A preemergence; assay type: in vivo, Triticum aestivum; conditions: preemergence; for Wheat plant response rating (0 to 100 scale): 125 g ai/ha, visual injury approx. 10 days after treatment; for Wheat plant response rating: 500 g ai/ha, visual injury after approx. 10 days, 0 to 100 scale (0 no effect, 100 complete control)
Method in brief: as §1

corn [8] = assay: Test A preemergence; assay type: in vivo, Zea mays; conditions: preemergence; for Corn plant response rating (0 to 100 scale): 125 g ai/ha, visual injury approx. 10 days after treatment; for Corn plant response rating: 500 g ai/ha, visual injury after approx. 10 days, 0 to 100 scale (0 no effect, 100 complete control)
Method in brief: as §1

barnyardgrass [9] = assay: Test A postemergence; assay type: in vivo, Echinochloa crus-galli
Method in brief: as §1

crabgrass, large [10] = assay: Test A postemergence; assay type: in vivo, Digitaria sanguinalis
Method in brief: as §1

foxtail, giant [11] = assay: Test A postemergence; assay type: in vivo, Setaria faberii
Method in brief: as §1

morningglory [12] = assay: Test A postemergence; assay type: in vivo, Ipomoea spp.
Method in brief: as §1

pigweed [13] = assay: Test A postemergence; assay type: in vivo, Amaranthus retroflexus
Method in brief: as §1

velvetleaf [14] = assay: Test A postemergence; assay type: in vivo, Abutilon theophrasti
Method in brief: as §1

wheat [15] = assay: Test A postemergence; assay type: in vivo, Triticum aestivum
Method in brief: as §1

corn [16] = assay: Test A postemergence; assay type: in vivo, Zea mays
Method in brief: as §1

rice = assay: Test B flood; assay type: in vivo, Oryza sativa; conditions: 250 g ai/ha, visual rating on 0 to 100 scale (0 no effect, 100 complete control), 13 to 15 days
Method in brief: (§2)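 Two-leaf-stage plants, pots flooded (3 cm above soil) and treated through the water, which stayed at that depth. After 13–15 days in greenhouse conditions, visual assessment versus controls: 0 is no effect, 100 complete control, dash means no result.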

sedge, umbrella = assay: Test B flood; assay type: in vivo, Cyperus difformis; conditions: 250 g ai/ha, visual rating on 0 to 100 scale (0 no effect, 100 complete control), 13 to 15 days
Method in brief: as §2

ducksalad = assay: Test B flood; assay type: in vivo, Heteranthera limosa; conditions: 250 g ai/ha, visual rating on 0 to 100 scale (0 no effect, 100 complete control), 13 to 15 days
Method in brief: as §2

barnyardgrass [17] = assay: Test B flood; assay type: in vivo, Echinochloa crus-galli; conditions: 250 g ai/ha, visual rating on 0 to 100 scale (0 no effect, 100 complete control), 13 to 15 days
Method in brief: as §2

[18] = 125 g ai/ha, visual injury, 0 to 100 scale, approx. 10 days
[19] = 500 g ai/ha, visual injury after approx. 10 days, 0 to 100 scale (0 no effect, 100 complete control)
[20] = Postemergence, 500 g ai/ha, 0 to 100 scale (0 no effect, 100 complete control)
[21] = postemergence, 125 g ai/ha, about 10 days, visual rating on 0 to 100 scale (0 no effect, 100 complete control)

SMILES	Barnyardgrass plant response rating (barnyardgrass [1]; [18])	Barnyardgrass plant response rating (barnyardgrass [1]; [19])	Crabgrass, Large plant response rating (0 to 100 scale) (crabgrass, large [2])	Crabgrass, Large plant response rating (crabgrass, large [2])	Foxtail, Giant plant response rating (0 to 100 scale) (foxtail, giant [3])	Foxtail, Giant plant response rating (foxtail, giant [3])	Morningglory plant response rating (0 to 100 scale) (morningglory [4])	Morningglory plant response rating (morningglory [4])	Pigweed plant response rating (0 to 100 scale) (pigweed [5])	Pigweed plant response rating (pigweed [5])	Velvetleaf plant response rating (0 to 100 scale) (velvetleaf [6])	Velvetleaf plant response rating (velvetleaf [6])	Wheat plant response rating (0 to 100 scale) (wheat [7])	Wheat plant response rating (wheat [7])	Corn plant response rating (0 to 100 scale) (corn [8])	Corn plant response rating (corn [8])	Barnyardgrass plant response rating (barnyardgrass [9]; [20])	Barnyardgrass plant response rating (barnyardgrass [9]; [21])	Crabgrass, Large plant response rating (crabgrass, large [10]; [20])	Crabgrass, Large plant response rating (crabgrass, large [10]; [21])	further results
CCCCc1cc(C(=O)NCC(F)(F)F)nn1Cc1ccnc(C(F)(F)F)c1 [Compound 148]	10	40	50	100	10	90	0	30	100	100	0	20	0	0	0	0	40	10	50	20	Foxtail, Giant plant response rating (foxtail, giant [11]; [20]): 40; Foxtail, Giant plant response rating (foxtail, giant [11]; [21]): 10; Morningglory plant response rating (morningglory [12]; [20]): 90; Morningglory plant response rating (morningglory [12]; [21]): 80; Pigweed plant response rating (pigweed [13]; [20]): 100; Pigweed plant response rating (pigweed [13]; [21]): 90; Velvetleaf plant response rating (velvetleaf [14]; [20]): 60; Velvetleaf plant response rating (velvetleaf [14]; [21]): 20; Wheat plant response rating (wheat [15]; [20]): 20; Wheat plant response rating (wheat [15]; [21]): 0; Corn plant response rating (corn [16]; [20]): 40; Corn plant response rating (corn [16]; [21]): 10; Plant response rating, Rice (rice): 15; Plant response rating, Sedge, Umbrella (sedge, umbrella): 40; Plant response rating, Ducksalad (ducksalad): 30; Plant response rating, Barnyardgrass (barnyardgrass [17]): 0
CCCc1cc(C(=O)Nc2ccc(F)cc2)nn1Cc1cc(C(F)(F)F)nn1C [Compound 150]	0	0	0	20	0	20	0	0	50	100	0	0	0	0	0	0	20	0	10	10	Foxtail, Giant plant response rating (foxtail, giant [11]; [20]): 10; Foxtail, Giant plant response rating (foxtail, giant [11]; [21]): 0; Morningglory plant response rating (morningglory [12]; [20]): 30; Morningglory plant response rating (morningglory [12]; [21]): 30; Pigweed plant response rating (pigweed [13]; [20]): 80; Pigweed plant response rating (pigweed [13]; [21]): 30; Velvetleaf plant response rating (velvetleaf [14]; [20]): 10; Velvetleaf plant response rating (velvetleaf [14]; [21]): 10; Wheat plant response rating (wheat [15]; [20]): 0; Wheat plant response rating (wheat [15]; [21]): 0; Corn plant response rating (corn [16]; [20]): 10; Corn plant response rating (corn [16]; [21]): 0; Plant response rating, Rice (rice): 15; Plant response rating, Sedge, Umbrella (sedge, umbrella): 65; Plant response rating, Ducksalad (ducksalad): 0; Plant response rating, Barnyardgrass (barnyardgrass [17]): 0
CCCCc1cc(C(=O)NC2CC2)nn1Cc1ccnc(C(F)(F)F)c1 [Compound 151]	0	60	80	100	50	100	0	30	70	100	0	70	0	10	0	0	50	10	80	30	Foxtail, Giant plant response rating (foxtail, giant [11]; [20]): 70; Foxtail, Giant plant response rating (foxtail, giant [11]; [21]): 20; Morningglory plant response rating (morningglory [12]; [20]): 90; Morningglory plant response rating (morningglory [12]; [21]): 50; Pigweed plant response rating (pigweed [13]; [20]): 100; Pigweed plant response rating (pigweed [13]; [21]): 70; Velvetleaf plant response rating (velvetleaf [14]; [20]): 60; Velvetleaf plant response rating (velvetleaf [14]; [21]): 30; Wheat plant response rating (wheat [15]; [20]): 10; Wheat plant response rating (wheat [15]; [21]): 0; Corn plant response rating (corn [16]; [20]): 50; Corn plant response rating (corn [16]; [21]): 10; Plant response rating, Rice (rice): 0; Plant response rating, Sedge, Umbrella (sedge, umbrella): 60; Plant response rating, Ducksalad (ducksalad): 0; Plant response rating, Barnyardgrass (barnyardgrass [17]): 0
O=C(NC1CC1)c1cc(Br)n(Cc2cccc(C(F)(F)F)c2)n1 [Compound 160]	0	10	50	90	0	60	0	0	50	90	0	10	0	0	0	0	30	0	40	20	Foxtail, Giant plant response rating (foxtail, giant [11]; [20]): 30; Foxtail, Giant plant response rating (foxtail, giant [11]; [21]): 20; Morningglory plant response rating (morningglory [12]; [20]): 20; Morningglory plant response rating (morningglory [12]; [21]): 0; Pigweed plant response rating (pigweed [13]; [20]): 80; Pigweed plant response rating (pigweed [13]; [21]): 50; Velvetleaf plant response rating (velvetleaf [14]; [20]): 60; Velvetleaf plant response rating (velvetleaf [14]; [21]): 30; Wheat plant response rating (wheat [15]; [20]): 0; Wheat plant response rating (wheat [15]; [21]): 0; Corn plant response rating (corn [16]; [20]): 20; Corn plant response rating (corn [16]; [21]): 0; Plant response rating, Rice (rice): 0; Plant response rating, Sedge, Umbrella (sedge, umbrella): 0; Plant response rating, Ducksalad (ducksalad): 0; Plant response rating, Barnyardgrass (barnyardgrass [17]): 0
